# Columns and labels:
# hIPSC-derived microglia = assay: Cytokine measurement (cytokine bead assay) in LPS-treated iPSC-derived microglia; format: cell-based, human; details: Yoda1 20 μM (Y20), n=4 per group
# Procedure: Cytokine measurement. The impact of Piezo1Rs effect on the capacity of the iPSC derived microglia to release cytokines was evaluated using cytokine bead assay (CBA, PD Pharmingen)). Shortly, prior to the experiment IPSCs were plated in 24-well plate at 70,000 cells/cm^2 and cultured for 48 hours. […] Next, media were collected, centrifuged to remove any cell debris, and the supernatant was frozen at −70° C. Cytokines were analyzed with cytometric bead array mouse inflammation kit (BD Biosciences) according to manufacturer's instructions.
# Piezo1Rs = target: T1, Piezo1Rs (Homo sapiens, UniProt Q92508); assay: Calcium imaging of Yoda1-evoked Ca2+ transients in SV-40 immortalized human microglia cell line; format: cell-based; details: control SV-40 cells, n=13
# T1 construct: SV-40 immortalized human microglia cell line which endogenously express Piezo-1 and Piezo2Rs was used; endogenous in cells; host or cells: SV-40 immortalized human microglia cell line
# Procedure: To study the calcium influx evoked by native Piezo1 Rs expressed in microglia cells the present inventors used short Yoda1 applications (2 s, 50 μM if not otherwise specified). For this purpose, human IPSO derived microglia cells and SV-40 (immortalized human microglia) cells were seeded on 7 mm cover slips 1 day prior to the imaging experiment. Cells were loaded with the calcium-sensitive fluorescent dye Fluo-4AM (5 μM) for 30 min at 37° C. Followed by wash-incubation for 15 min in Ab 20 μM, 50 μM GdCI and basic solution (BS) as a control at 37° C. The basic solution containing the following (BS, in mM): 2.5 KCl, 152 NaCl, 10 glucose, 2 CaCl2, and 10 HEPES at pH 7.4. Fluorescence was visualized using monochromatic light source (TILL Photonics GmbH) using Ex/Im 494/[…] and a CCD camera (SensiCam). […] To quantify the difference in the amplitude of calcium transients, the ratio values were normalized by subtracting a baseline and further divided by the amplitude of the calcium transient to the 2 sec application of the ionomycin. Data were pre-analyzed offline using the FEI offline analysis (TILL Photonics), and further analysis was automatized using MatLab. Quantitative data were expressed as means±SEM unless otherwise stated. […] Significance assessed with the ANOVA test or Mann-Whitney t test for non-parametric data. […]
# hiPSC-microglia = assay: Cytotoxicity assay (Cytotox Green, Incucyte S3); format: cell-based; details: 2-20 μM Yoda1, 60-hour time point, n=3 experiments
# Procedure: Cytotoxicity assay. The cytotoxicity of in vitro cultures was assessed with Cytotox Green assay (Essen Bioscience) using Incucyte S3 Live-Cell Analysis System (Essen Bioscience, Ann Arbor, Mich., USA, #4647). Microglia were seeded for the assay at density of 15 000 cells per well on poly-D-lysine (PDL, Sigma, #P0899) coated Nunclon (Thermo Scientific, #167008) or ImageLock 96-well plates (Essen Bioscience, #4379). On the assay day, cells were treated with 0.1-20 μM Yoda1 (Tocris, #5586) in PM medium supplemented with 250 nM Cytotox Green reagent (Essen Bioscience, #4633). Equal volume of DMSO (Sigma, #D2650) was used as a vehicle and 200 μM MPP+(Sigma, #D048) was applied as a positive control. Cells were live-imaged in IncuCyte S3 at 37° C. and 5% CO2 every 3 hours for 3 days to obtain cell death over time. One to two 10× images per well were captured using the phase-contrast mode to obtain confluency and the green fluorescence mode to obtain fluorescent intensity. Quantification was performed using IncuCyte S3 Software (2019B). Green fluorescence was separated from background with a top-hat thresholding and all settings were kept constant between different conditions. […]
# T1 sequence (Q92508 whole entry): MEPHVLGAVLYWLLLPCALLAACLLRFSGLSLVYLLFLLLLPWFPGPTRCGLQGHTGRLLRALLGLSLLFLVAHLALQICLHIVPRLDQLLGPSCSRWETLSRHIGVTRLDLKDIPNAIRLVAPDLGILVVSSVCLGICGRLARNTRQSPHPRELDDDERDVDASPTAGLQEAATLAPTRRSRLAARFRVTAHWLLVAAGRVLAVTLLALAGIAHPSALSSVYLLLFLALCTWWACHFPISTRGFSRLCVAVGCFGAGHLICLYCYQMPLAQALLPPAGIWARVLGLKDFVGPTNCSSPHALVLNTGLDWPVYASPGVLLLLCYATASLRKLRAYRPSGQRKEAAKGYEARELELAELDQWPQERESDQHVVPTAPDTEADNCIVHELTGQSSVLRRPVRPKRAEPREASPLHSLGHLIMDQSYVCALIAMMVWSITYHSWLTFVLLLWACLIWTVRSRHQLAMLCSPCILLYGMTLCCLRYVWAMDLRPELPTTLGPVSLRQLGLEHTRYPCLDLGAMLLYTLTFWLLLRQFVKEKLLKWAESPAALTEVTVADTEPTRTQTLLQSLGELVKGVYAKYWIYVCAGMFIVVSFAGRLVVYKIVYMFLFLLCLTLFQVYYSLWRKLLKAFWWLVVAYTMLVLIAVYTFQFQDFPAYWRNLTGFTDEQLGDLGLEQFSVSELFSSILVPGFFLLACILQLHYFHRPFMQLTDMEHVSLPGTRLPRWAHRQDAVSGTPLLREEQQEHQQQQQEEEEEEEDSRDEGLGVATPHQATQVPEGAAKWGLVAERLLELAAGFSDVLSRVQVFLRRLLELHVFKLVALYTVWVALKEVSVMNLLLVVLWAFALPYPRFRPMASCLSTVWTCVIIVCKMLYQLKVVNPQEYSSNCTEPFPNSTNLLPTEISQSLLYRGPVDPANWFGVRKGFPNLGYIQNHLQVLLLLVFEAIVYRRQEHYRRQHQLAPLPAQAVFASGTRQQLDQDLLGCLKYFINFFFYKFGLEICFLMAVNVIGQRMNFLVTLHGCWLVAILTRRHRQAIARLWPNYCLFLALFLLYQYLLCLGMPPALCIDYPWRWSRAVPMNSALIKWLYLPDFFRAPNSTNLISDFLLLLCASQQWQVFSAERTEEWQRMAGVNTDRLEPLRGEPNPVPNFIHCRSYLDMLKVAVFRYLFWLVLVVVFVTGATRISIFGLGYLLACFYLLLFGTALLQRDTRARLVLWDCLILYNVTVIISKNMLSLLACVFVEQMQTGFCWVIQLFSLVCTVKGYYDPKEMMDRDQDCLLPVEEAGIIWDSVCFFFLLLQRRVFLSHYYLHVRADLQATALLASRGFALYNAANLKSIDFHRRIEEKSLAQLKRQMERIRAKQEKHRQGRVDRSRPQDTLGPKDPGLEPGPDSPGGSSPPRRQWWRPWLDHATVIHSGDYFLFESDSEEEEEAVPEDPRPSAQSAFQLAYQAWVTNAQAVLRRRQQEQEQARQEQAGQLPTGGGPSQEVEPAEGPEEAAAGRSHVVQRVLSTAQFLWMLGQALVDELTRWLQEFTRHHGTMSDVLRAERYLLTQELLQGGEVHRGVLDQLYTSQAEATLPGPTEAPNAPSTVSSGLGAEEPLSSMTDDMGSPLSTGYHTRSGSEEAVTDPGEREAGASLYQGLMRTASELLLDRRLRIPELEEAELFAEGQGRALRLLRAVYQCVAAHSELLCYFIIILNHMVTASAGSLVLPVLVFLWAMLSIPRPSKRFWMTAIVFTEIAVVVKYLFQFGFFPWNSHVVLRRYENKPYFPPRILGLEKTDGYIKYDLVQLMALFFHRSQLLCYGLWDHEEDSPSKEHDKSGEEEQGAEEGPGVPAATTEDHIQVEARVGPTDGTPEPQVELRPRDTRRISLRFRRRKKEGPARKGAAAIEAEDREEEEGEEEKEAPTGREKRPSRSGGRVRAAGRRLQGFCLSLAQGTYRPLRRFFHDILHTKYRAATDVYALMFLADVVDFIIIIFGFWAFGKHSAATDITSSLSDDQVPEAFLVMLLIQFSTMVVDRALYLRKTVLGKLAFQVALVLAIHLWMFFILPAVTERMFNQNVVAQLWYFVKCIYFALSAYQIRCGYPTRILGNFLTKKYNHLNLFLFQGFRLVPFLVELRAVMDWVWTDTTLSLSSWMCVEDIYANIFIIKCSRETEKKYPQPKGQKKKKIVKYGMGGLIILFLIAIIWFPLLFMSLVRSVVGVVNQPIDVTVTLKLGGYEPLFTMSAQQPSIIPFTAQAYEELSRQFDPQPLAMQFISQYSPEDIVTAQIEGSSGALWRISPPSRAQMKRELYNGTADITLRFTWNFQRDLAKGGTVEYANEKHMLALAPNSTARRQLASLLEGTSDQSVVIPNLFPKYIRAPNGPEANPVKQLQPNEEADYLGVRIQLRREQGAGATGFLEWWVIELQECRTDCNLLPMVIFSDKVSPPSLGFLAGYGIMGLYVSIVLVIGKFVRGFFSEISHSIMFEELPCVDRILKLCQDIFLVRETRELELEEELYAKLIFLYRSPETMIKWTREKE
compound,measurement,setting,value
Clc1cccc(Cl)c1CSc1nnc(-c2cnccn2)s1 [Yoda1],secretion of anti-inflammatory IL-10,hIPSC-derived microglia; LPS,increases the secretion
same,LPS induced secretion of pro-inflammatory IL-6,hIPSC-derived microglia,prevented the LPS induced secretion
same,LPS induced secretion of pro-inflammatory IL-8,hIPSC-derived microglia,prevented the LPS induced secretion
same,LPS induced secretion of pro-inflammatory MCP1,hIPSC-derived microglia,prevented the LPS induced secretion
same,"Yoda1 activated Ca2+ transients, amplitude normalized to ionomycin",Piezo1Rs,0.82±0.14
same,microglial cell death (cytotoxicity dye uptake),hiPSC-microglia,protects hiPSC-microglia from cell death

# — patent US20220265646A1, “PIEZO AGONISTS FOR PREVENTING OR REVERTING ABNORMAL AMYLOID DEPOSITION” (ITÄ-SUOMEN YLIOPISTO, priority 2019, published 2022)
